Laboratory results: patent US8138168B1 (Takeda Pharmaceutical Company Limited, priority 2007, dated 2012)

Target: T1, Recombinant human renin (Homo sapiens, UniProt P00797)
T1 construct: isolate the active form (residues 67-406); made in house; host or cells: FreeStyle 293-F cells (transient expression of pcDNA3.1(+)/hREN)
T1 sequence (P00797 67-406): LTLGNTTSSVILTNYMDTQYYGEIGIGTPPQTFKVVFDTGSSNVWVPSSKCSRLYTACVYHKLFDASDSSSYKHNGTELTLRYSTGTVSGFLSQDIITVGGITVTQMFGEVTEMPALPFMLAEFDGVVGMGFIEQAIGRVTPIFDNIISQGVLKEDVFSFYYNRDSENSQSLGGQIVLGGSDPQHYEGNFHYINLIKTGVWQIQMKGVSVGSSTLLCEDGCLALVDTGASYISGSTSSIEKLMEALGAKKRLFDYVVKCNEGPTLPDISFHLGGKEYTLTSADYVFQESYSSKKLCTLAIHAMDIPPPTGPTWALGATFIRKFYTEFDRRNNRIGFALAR
Assay: In vitro enzymatic activity assay of renin inhibitors (fluorogenic peptide substrate)
Assay type: biochemical
Conditions: read-out: IC50 of Exemplified Compounds Against Renin
In short: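 Recombinant human renin (3 nM final) pre-incubated 10 min at 37 °C with compounds in pH 7.4 Hepes/EDTA/DTT/0.1 mg/mL BSA/Brij35 buffer (optionally plus 2% BSA), 5% DMSO final; fluorogenic QXL520/HiLyteFluo488 peptide substrate added.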

| SMILES | IC50 [nM] |
| --- | --- |
| COCCCn1c([C@@H]2CCCN(C(=O)C[C@H](N)Cc3ccc(-c4ccc(C(N)=O)cc4)cc3)C2)nc2ccccc21 [Compound 168, 4′-((R)-2-Amino-4-((R)-3-(1-(3-methoxypropyl)-1H-benzo[d]imidazol-2-yl)piperidin-1-yl)-4-oxobutyl)biphenyl-4-carboxamide] | < 100 |
| COCCCn1c([C@@H]2CCCN(C(=O)C[C@H](N)CNS(=O)(=O)c3c(Cl)cccc3Cl)C2)nc2ccccc21 [Compound 290, N-((S)-2-amino-4-((R)-3-(1-(3-methoxypropyl)-1H-benzo[d]imidazol-2-yl)piperidin-1-yl)-4-oxobutyl)-2,6-dichlorobenzenesulfonamide] | 100 to 1000 |
| COCCCn1c([C@@H]2CCCN(C(=O)C[C@H](N)CNC(=O)c3ccc(Oc4ccccc4)cc3)C2)nc2ccccc21 [Compound 278, N-((S)-2-amino-4-((R)-3-(1-(3-methoxypropyl)-1H-benzo[d]imidazol-2-yl)piperidin-1-yl)-4-oxobutyl)-4-phenoxybenzamide] | 100 to 1000 |
| COCCCn1c([C@@H]2CCCN(C(=O)C[C@H](N)Cc3ccc(-n4c(=O)n(CCO)c5ccccc54)cc3)C2)nc2ccccc21 [Compound 222, 1-(4-((R)-2-amino-4-((R)-3-(1-(3-methoxypropyl)-1H-benzo[d]imidazol-2-yl)piperidin-1-yl)-4-oxobutyl)phenyl)-3-(2-hydroxyethyl)-1H-benzo[d]imidazol-2(3H)-one] | < 100 |
| COCCCn1c([C@@H]2CCCN(C(=O)[C@@H]3CN(S(=O)(=O)c4ccccc4Cl)C[C@H]3N)C2)nc2ccccc21 [Compound 346, ((3R,4S)-4-amino-1-(2-chlorophenylsulfonyl)pyrrolidin-3-yl)((R)-3-(1-(3-methoxypropyl)-1H-benzo[d]imidazol-2-yl)piperidin-1-yl)methanone] | 100 to 1000 |
| COCCCn1c([C@@H]2CCCN(C(=O)C[C@H](N)Cc3ccc(-n4ccccc4=O)cc3)C2)nc2ccccc21 [Compound 207] | 100 to 1000 |
| COCCCn1c([C@@H]2CCCN(C(=O)C[C@H](N)Cc3ccc(-c4ccc(N)cc4)cc3)C2)nc2ccccc21 [Compound 170, (R)-3-Amino-4-(4′-aminobiphenyl-4-yl)-1-((R)-3-(1-(3-methoxypropyl)-1H-benzo[d]imidazol-2-yl)piperidin-1-yl)butan-1-one] | < 100 |
| COCCCn1c([C@@H]2CCCN(C(=O)C[C@H](N)Cc3ccc(-c4ccc5c(c4)CC(=O)N5)cc3)C2)nc2c(C)cccc21 [Compound 495, 5-(4-((R)-2-amino-4-((R)-3-(1-(3-methoxypropyl)-4-methyl-1H-benzo[d]imidazol-2-yl)piperidin-l-yl)-4-oxobutyl)phenyl)indolin-2-one] | < 100 |
| COCCCn1c([C@@H]2CCCN(C(=O)[C@@H]3CN(S(=O)(=O)c4c(Cl)cc(Cl)cc4Cl)C[C@H]3N)C2)nc2ccccc21 [Compound 340, ((3R,4S)-4-amino-1-(2,4,6-trichlorophenylsulfonyl)pyrrolidin-3-yl)((R)-3-(1(3-methoxypropyl)-1H-benzo[d]imidazol-2-yl)piperidin-1-yl)methanone] | 100 to 1000 |
| COCCCn1c([C@@H]2CCCN(C(=O)C[C@H](N)CNS(=O)(=O)c3ccccc3OC)C2)nc2ccccc21 [Compound 324, N-((S)-2-amino-4-((R)-3-(1-(3-methoxypropyl)-1H-benzo[d]imidazol-2-yl)piperidin-1-yl)-4-oxobutyl)-2-methoxybenzenesulfonamide] | > 1000 |
| COCCCn1c([C@@H]2CCCN(C(=O)[C@@H]3CN(S(=O)(=O)c4ccc(C(C)(C)C)cc4)C[C@H]3N)C2)nc2ccccc21 [Compound 374, ((3R,4S)-4-amino-1-(4-tert-butylphenylsulfonyl)pyrrolidin-3-yl)((R)-3-(1-(3-methoxypropyl)-1H-benzo[d]imidazol-2-yl)piperidin-1-yl)methanone] | 100 to 1000 |
| COCCCn1c([C@@H]2CCCN(C(=O)C[C@H](N)CNC(=O)c3ccc4c(c3)OCCO4)C2)nc2ccccc21 [Compound 308, N-((S)-2-amino-4-((R)-3-(1-(3-methoxypropyl)-1H-benzo[d]imidazol-2-yl)piperidin-1-yl)-4-oxobutyl)-2,3-dihydrobenzo[b][1,4]dioxine-6-carboxamide] | 100 to 1000 |
| COCCCn1c([C@@H]2CCCN(C(=O)C[C@H](N)Cc3ccc(-c4ccccc4)cc3)C2)nc2ccncc21 [Compound 103, (R)-3-amino-4-(biphenyl-4-yl)-1((R)-3-(3-(3-methoxypropyl)-3H-imidazo[4,5-c]pyridin-2-yl)piperidin-1-yl)butan-1-one] | > 1000 |

Further lines, results first:

| IC50 [nM] | SMILES |
| --- | --- |
| 100 to 1000 | CC(=O)NCCn1c([C@@H]2CCCN(C(=O)C[C@H](N)Cc3ccc(-c4cnc(N)nc4)cc3)C2)nc2ccccc21 [Compound 450, N-(2-(2-((R)-1-((R)-3-amino-4-(4-(2-aminopyrimidin-5-yl)phenyl)butanoyl)piperidin-3-yl)-1H-benzo[d]imidazol-1-yl)ethyl)acetamide] |
| > 1000 | O=C(Nc1ccc2c(c1)CCC2)N1CCCC(c2nc3ccccc3[nH]2)C1 (stereo not drawn) [Compound 9, 3-(1H-benzo[d]imidazol-2-yl)-N-(2,3-dihydro-1H-inden-5-yl)piperidine-1-carboxamide] |
| 100 to 1000 | COCCCn1c([C@@H]2CCCN(C(=O)C[C@H](N)CNC(=O)c3ccc(-c4ccc(F)cc4)o3)C2)nc2ccccc21 [Compound 304, N-((S)-2-amino-4-((R)-3-(1-(3-methoxypropyl)-1H-benzo[d]imidazol-2-yl)piperidin-1-yl)-4-oxobutyl)-5-(4-fluorophenyl)furan-2-carboxamide] |
| 100 to 1000 | COCCCn1c([C@@H]2CCCN(C(=O)[C@@H]3CN(S(=O)(=O)c4ccc(-c5ccccc5)cc4)C[C@H]3N)C2)nc2ccccc21 [Compound 348, ((3R,4S)-4-amino-1-(biphenyl-4-ylsulfonyl)pyrrolidin-3-yl)((R)-3-(1-(3-methoxypropyl)-1H-benzo[d]imidazol-2-yl)piperidin-1-yl)methanone] |
| > 1000 | COCCCn1c([C@@H]2CCCN(C(=O)[C@@H]3CN(S(=O)(=O)c4ccc([N+](=O)[O-])cc4OC)C[C@H]3N)C2)nc2ccccc21 [Compound 411, ((3R,4S)-4-amino-1-(2-methoxy-4-nitrophenylsulfonyl)pyrrolidin-3-yl)((R)-3-(1-(3-methoxypropyl)-1H-benzo[d]imidazol-2-yl)piperidin-1-yl)methanone] |
| > 1000 | COCCCn1c([C@@H]2CCCN(C(=O)[C@@H]3CN(C(=O)c4c(Cl)cccc4Cl)C[C@H]3N)C2)nc2ccccc21 [Compound 414, ((3R,4S)-4-amino-1-(2,6-dichlorobenzoyl)pyrrolidin-3-yl)((R)-3-(1-(3-methoxypropyl)-1H-benzo[d]imidazol-2-yl)piperidin-1-yl)methanone] |
| 100 to 1000 | COCCCn1c([C@@H]2CCCN(C(=O)C[C@H](N)CNC(=O)c3cccc(Oc4ccccc4)c3)C2)nc2ccccc21 [Compound 270, N-((S)-2-amino-4-((R)-3-(1-(3-methoxypropyl)-1H-benzo[d]imidazol-2-yl)piperidin-1-yl)-4-oxobutyl)-3-phenoxybenzamide] |
| < 100 | COCCCn1c([C@@H]2CCCN(C(=O)C[C@H](N)CNC(=O)Nc3ccc4c(c3)OCCO4)C2)nc2ccccc21 [Compound 258, 1-((S)-2-amino-4-((R)-3-(1-(3-methoxypropyl)-1H-benzo[d]imidazol-2-yl)piperidin-1-yl)-4-oxobutyl)-3-(2,3-dihydrobenzo[b][1,4]dioxin-6-yl)urea] |
